These results are taken from patent publication US9120779B2, “Inhibitors of HCV NS5A” (PRESIDIO PHARMACEUTICALS, INC., priority 2008, dated 2015).

Molecules are shown by their SMILES. Like-named read-outs stand apart in the source and are kept apart here.

The subject of this experiment is HCV genotype 1b replicon in Huh 7 cells. In words: HCV replicon assay (luciferase readout, 1b_Huh-Luc/Neo-ET cell line). As to conditions: Hepatitis C virus, Huh-7, 72 h. The class given is cell-based. As to the method:
Biological activity of the compounds of the invention was determined using an HCV replicon assay. The 1b_Huh-Luc/Neo-ET cell line persistently expressing a bicistronic genotype 1b replicon in Huh 7 cells was obtained from R^eBLikon GMBH. This cell line was used to test compound inhibition using luciferase enzyme activity readout as a measurement of compound inhibition of replicon levels.
On Day 1 (the day after plating), each compound is added in triplicate to the cells. Plates incubated for 72 h prior to running the luciferase assay. Enzyme activity was measured using a Bright-Glo Kit (cat. number E2620) manufactured by Promega Corporation. The following equation was used to generate a percent control value for each compound. % Control=(Average Compound Value/Average Control)*100
The EC50 value was determined using GraphPad Prism and the following equation: Y=Bottom+(Top−Bottom)/(1+10^((Log IC50−X)*HillSlope))
EC50 values of compounds are repeated several times in the replicon assay.
Example compounds of the disclosed invention are illustrated in Tables 1-9 attached as appendices. The tables show inhibitory activity of many of the example compounds with respect to HCV 1b. […] The tables further provide mass spectrometry results for the synthesized example compounds.
For orientation: In antiviral work, replicon cells carry a viral genome segment that copies itself.

Setting [1] is: read-out: Inhibition of HCV genotype 1b, Table 5, 72 h incubation.
The mark [2] stands for this setting: read-out: Inhibition of HCV genotype 1b, Table 1, 72 h incubation.
Setting [3] is: read-out: Inhibition of HCV genotype 1b, Table 3, 72 h incubation.
[4] abbreviates: read-out: Inhibition of HCV genotype 1b, Table 4, 72 h incubation.

With `CC(C)[C@H](NC(=O)N1CC[C@@H](O)C1)C(=O)N1CCC[C@H]1c1ncc(-c2ccc(C34CCC(c5cnc([C@@H]6CCCN6C(=O)[C@@H](NC(=O)N6CC[C@@H](O)C6)C(C)C)[nH]5)(CC3)CC4)cc2)[nH]1` [compound 629], the EC50 under setting [1] was above 1000 nM.
`COC(=O)N[C@H](C(=O)N1CCC[C@H]1c1ncc(-c2ccc([C@H]3CC[C@H](c4cnc([C@@H]5CCCN5C(=O)[C@@H](NC(=O)OC)C5CC5)[nH]4)CC3)cc2)[nH]1)C1CC1` [compound 942]: the EC50 under setting [2] is below 1 nM.
As to `COC(=O)N[C@@H](C(=O)N[C@@H](C)c1ncc(C2CCN(c3c(F)cc(-c4cnc([C@@H]5CCCN5C(=O)[C@H](NC(=O)OC)c5ccccc5)[nH]4)cc3F)CC2)[nH]1)c1ccccc1` [compound 517], the EC50 under setting [3] was below 1 nM.
The same measure, in the same setting: the figure for `COC(=O)N[C@H](C(=O)N1CCOC[C@H]1c1ncc(-c2cc(F)c(N3CCC(c4cnc([C@@H]5CCCN5C(=O)[C@@H](NC(=O)OC)C(C)C)[nH]4)CC3)c(F)c2)[nH]1)C(C)C` [compound 509] is below 1 nM.
`COC(=O)N[C@H](C(=O)N1CCC[C@H]1c1ncc(C23CCC(c4ccc(-c5cnc([C@@H]6CCCN6C(=O)[C@@H](NC(=O)N6CCC(=O)CC6)C(C)C)[nH]5)cc4)(CC2)CC3)[nH]1)C(C)C` [compound 650]: under setting [1], the EC50 lay within 1 to 9.9 nM.
On the same count and under the same terms, the figure for `COC(=O)N[C@H](C(=O)N1CCC[C@H]1c1ncc(-c2ccc(C34CCC(c5cnc([C@@H]6CCCN6C(=O)[C@H](C(C)C)N(C)C(=O)OC)[nH]5)(CC3)CC4)cc2)[nH]1)C(C)C` [compound 911] is below 1 nM.
`CC(C)[C@H](NC(=O)N1CC[C@H](O)C1)C(=O)N1CCC[C@H]1c1nc2ccc(-c3ccc(-c4ccc5nc([C@@H]6CCCN6C(=O)[C@@H](NC(=O)N6CC[C@H](O)C6)C(C)C)[nH]c5c4)cc3)cc2[nH]1` [compound 553]: the EC50 under setting [4] is above 1000 nM.
In the case of `COC(=O)N[C@H](C(=O)N1CCC[C@H]1c1ncc(-c2ccc(C34CCC(c5cnc([C@@H]6CCCN6C(=O)[C@@H](NC(=O)OC)[C@@H](C)OC)[nH]5)(CC3)CC4)cc2)[nH]1)[C@@H](C)OC` [compound 612], the EC50 under setting [1] was below 1 nM.
Same read-out and setting: the figure for `COC(=O)N[C@H](C(=O)N1CCC[C@H]1c1ncc(-c2ccc(C34CCC(c5cnc([C@@H]6CCCN6C(=O)[C@@H](NC(=O)OC6CCOCC6)c6ccccc6)[nH]5)(CC3)CC4)cc2)[nH]1)C(C)C` [compound 2107] is below 1 nM.
For `COC(=O)N[C@H](C(=O)N1CCC[C@H]1c1ncc(-c2ccc(C34CCC(c5cnc([C@@H]6CCCN6C(=O)[C@@H](NC(=O)OC)[C@H](C)O)[nH]5)(CC3)CC4)cc2)[nH]1)[C@H](C)O` [compound 909], under setting [1], the EC50 lay within 1 to 9.9 nM.
`C[C@H](NC(=O)[C@H](NC(=O)OC(C)(C)C)c1ccccc1)c1ncc(-c2cc(F)c(N3CCC(c4cnc([C@@H]5CCCN5C(=O)[C@H](NC(=O)OC(C)(C)C)c5ccccc5)[nH]4)CC3)c(F)c2)[nH]1` [compound 520]: the EC50 under setting [3] is below 1 nM.
Same read-out and setting: to `COC(=O)N[C@@H](C(=O)N1CCC[C@H]1c1ncc(-c2cc(F)c(N3CCC(c4cnc([C@@H]5CCCCN5C(=O)[C@H](NC(=O)C5CC5)c5ccccc5)[nH]4)CC3)c(F)c2)[nH]1)c1ccccc1` [compound 486] belongs below 1 nM.
Take `COC(=O)N[C@H](C(=O)N[C@@H](C)c1nc2ccc(-c3ccc(-c4ccc5nc([C@H](C)NC(=O)[C@@H](NC(=O)OC)C(C)C)[nH]c5c4)cc3)cc2[nH]1)C(C)C` [compound 932]: the EC50 under setting [4] is below 1 nM.
Turning to `COC(=O)N[C@H](C(=O)N1CCC[C@H]1c1ncc(-c2ccc([C@H]3CC[C@@H](c4cnc([C@@H]5CCCN5C(=O)[C@@H](NC(=O)OC)C(C)C)[nH]4)CC3)cc2)[nH]1)C(C)C` [compound 382], under setting [2], the EC50 is below 1 nM.
For `COC(=O)N[C@@H](CC(C)C)C(=O)N1CCC[C@H]1c1ncc(-c2ccc(C34CCC(c5cnc([C@@H]6CCCN6C(=O)[C@H](CC(C)C)NC(=O)OC)[nH]5)(CC3)CC4)cc2)[nH]1` [compound 2091], under setting [1], the EC50 is below 1 nM.
